Results taken from article PMC10759609, “A novel PDPN antagonist peptide CY12-RP2 inhibits melanoma growth via Wnt/β-catenin and modulates the immune cells” (Journal of Experimental & Clinical Cancer Research : CR, 2024).
Peptide text beside a SMILES is read from it.

How the values were obtained:
[1] = system: 3D melanoma spheroid (A375); assay: 3D melanoma spheroid / PBMC co-culture; format: cell-based; details: 0, 2, 10, 50 μM, with increasing concentrations
Experimental: (§1) Prepared melanoma cells spheroids were plated in 48-well plates. Following incubation for 3 days, the spheroids were exposed to different concentrations (0, 50, 100 and 200 μM) of CY12-RP2, and changes in spheroid diameter were detected after 5 days of treatment. Additionally, melanoma cell spheroids were treated with various concentrations of CY12-RP2 as described previously, and after 72 h, the spheroids were stained for immunofluorescence with caspase 3 primary antibody. The specific experimental procedures refer to the following immunofluorescence analysis. Additionally, we co-cultured peptide-stimulated PBMC with spheroids to determine the tumor-killing ability of activated PBMC.
Fig. 6 Influence of CY12-RP2 on the immune-mediated anti-tumor capacity of PBMC in vitro and in vivo. A The procedure of PBMC isolation from donor peripheral blood, and the ratio of different immune cells in PBMC was assayed by flow cytometry. B PBMCs were stimulated with CY12-RP2 for 48 h, and the cytokine levels in the supernatant were assayed by ELISA. […] E Brightfield and fluorescent microscopy images of A375 cells (red) co-culture with PBMC (GFP) were stimulated with various concentrations (0, 2, 10, 50 μM) of CY12-RP2. Data are presented as mean ± SD. *p < 0.05, **p < 0.01, ***p < 0.001 versus control

A375 cells [2] = assay: Transwell matrigel invasion, A375; format: cell-based; details: transwell matrigel, 0, 5, 25 μM, 48 h
Experimental: For invasion assay, matrigel (Corning, New York, USA) was coated on the upper surface of the upper chamber. The upper chamber was filled with DMEM medium containing 2% FBS, while the lower chamber contained a medium supplemented with 20% FBS. In brief, melanoma cells (A375 GFP, A875 GFP, A375 PDPN^−/−, and A875 PDPN^+/+ cells) were seeded in the upper chamber of the transwell plate (Corning, New York, USA) at about 5 × 10^4 cells/well with the medium as described above. For peptide functionality experiments, A375 and A875 cells were seeded in the upper chamber of the transwell plate at a density of 5 × 10^4 cells/well with various peptide concentrations (0 μM, 5 μM, 25 μM). Transwell inserts were fixed using 4% paraformaldehyde after 48 h cell invasion, and crystalline violet was used for staining. The quantities of invading cells were quantified using ImageJ software (NIH).

Ki67 = Ki67 fluorescence staining of xenograft tumors; format: in vivo, BALB/c nude mice; details: A375 xenograft tumors
Experimental: Fig. S4: The inhibition of cells metastasis and invasion by CY12-RP2 can be […]
(A, B) The inhibition of CY12-RP2 on the migration capacity of melanoma cell lines was reversed by SKL2001 (A). Statistical analysis was performed to determine the migrated distance (B). The power field scale bar, 100 μm. (C, D) Effect of CY12-RP2 on the invasive ability of melanoma cell lines were reversed by SKL2001 (C).
Statistical analysis was performed to count the invaded cells (D). The power field scale bar, 100 μm. (E) Western blot assay was also performed to detect the proteins related to EMT and Wnt/β-catenin signaling pathway, including N-cadherin, Vimentin, snail, Dvl2, Phospho-β-catenin-S675, β-catenin, Phospho-GSK3β-Ser9 and GSK3β by CY12-RP2 with or without SKL2001 (50 μM). Data are presented as mean ± SD. *p < […]
Fig. S5: Effects and toxicity of CY12-RP2 in vivo
(A) TUNEL analysis of apoptosis was conducted on orthotopic xenografts tumor sections using fluorescence staining. The power field scale bar, 100 μm. (B) Fluorescence staining of Ki67 was carried out on orthotopic xenograft tumor sections.
The power field scale bar, 100 μm. (C) Serum His-CY12-RP2 levels of the orthotopic xenografts mice treated by various dosage of CY12-RP2 were measured by His-ELISA kit. […]
kit. (E) Serum ALT, AST, TG, and γ-GT levels of the orthotopic xenografts model were measured by ELISA. […]

[3] = system: A375 cell spheroids (caspase3); assay: Caspase3 immunofluorescence in 3D spheroids; format: cell-based; details: 3D melanoma cell spheroids (A375 in Fig. S3G legend), 72 h
Experimental: as §1
Transwell assays were performed to quantify the modulatory effects of SKL2001 and IWR1 (C). Statistical analysis was performed to evaluate the invasion of cells (D). The power field scale bar, 100 μm. (E) Western blot assays were also performed on EMT-related proteins to identify the effects of SKL2001 and IWR1. […]
(A) Cell viability of melanoma cell lines (A375, A875) treated with 6 peptides except CY12-RP2 at various concentrations for 48 h. […] (C) SPR assay was performed to quantify […]
melanoma cell lines (A375, A875). […] (G) Immunofluorescence staining was performed to measure the caspase3 fluorescence intensity of A375 cell spheroids after treating with CY12-RP2. […]

A375 cells [4] = assay: Wound healing (migration), A375; format: cell-based; details: wound healing, 0, 5, 25 μM, 24 h or 48 h
Experimental: A375 GFP, A875 GFP, A375 PDPN^−/−, and A875 PDPN^+/+ cells were all seeded in 12-well plates at a density of 5 × 10^5 cells/well. When the cells reached 100% confluence the next day, the straight wound was scraped in each cultured well with a 20 µL pipette tip. Then the cells were washed repeatedly with complete DMEM to remove the cellular debris, and the medium was changed to a low serum medium containing 0.05% FBS. The scratch-treated cells were subsequently cultured for an additional indicated time and imaged at 0 h, 12 h, 24 h and 48 h. Quantification of wound closure was accomplished by measuring the distance between the phase contrast images’ anterior edges of the contralateral surfaces using ImageJ software. As for peptide (CY12-RP2) function experiments, images of phase contrast for A375 GFP and A875 GFP cells were captured at 0 h before peptide administration. The cells were then treated with CY12-RP2 (0 μM, 5 μM, 25 μM) for 24 h or 48 h, and then images were acquired again. Handling of the experimental results were carried out as previously described.

In the case of `CC(C)C[C@H](NC(=O)[C@H](Cc1ccc(O)cc1)NC(=O)[C@@H](N)[C@@H](C)O)C(=O)N[C@@H](CS)C(=O)N[C@H](C(=O)N[C@@H](C)C(=O)N[C@@H](CS)C(=O)N[C@@H](CC(=O)O)C(=O)N[C@@H](Cc1ccc(O)cc1)C(=O)N[C@H](C(=O)N[C@@H](Cc1c[nH]cn1)C(=O)N[C@@H](Cc1c[nH]cn1)C(=O)O)[C@@H](C)O)[C@@H](C)O` [CY12-RP2] (H-TYLCTACDYTHH-OH; N-terminus and C-terminus assumed), the “tumor-killing capacity of PBMC” value [1] is reported as “increased”, the invasion (A375 cells [2]) is reported as “significantly suppressed the invasion of A375 cells in a dose-dependent manner” and the “level of Ki67” value (Ki67) is reported as “significantly decreased”. For the same molecule, the “level of Caspase3” value [3] was “significantly increased” and the migration (A375 cells [4]) was “inhibited migration at the corresponding time both in A375 and A875 cells, but A375 cells were more susceptible”.
